Experimental data as given in publication PMC9814400 (Communications Chemistry, 2022).
Read-outs that look alike come from different tables or passages of the source.

Columns and labels:
[1] = target: p97 ND1 fragment; details: read-out: reported affinity of ADP, cited from earlier work
[2] = target: T1, p97-ND1 (Homo sapiens, UniProt P55072); test: BLI dose-response binding to the p97-ND1 construct
T1 construct: His6 (TEV protease-cleavable) (N); made in house
Text: As starting point for the initial screen, a BLI binding assay was developed with a p97-ND1 construct (amino acids 2-481) to allow validation with adenosine diphosphate (ADP) as a positive control. The p97-ND1 construct was enzymatically biotinylated via an Avi-Tag and Escherichia coli biotin ligase[28] and loaded to high response (>5 nm) on Super Streptavidin Biosensors (SSA), yielding a homogeneous sensor surface. […] The kinetic analysis of the sensorgrams indicated a clear 1:1 binding model for ADP. […] Another surprising result were the high responses upon ADP-binding with shifts over 0.7 nm. These high values indicate that the BLI signal is not only dependent on the molar weight as in SPR but may also reflect conformational changes induced in p97 upon ADP binding.
For 12 fragments, a dose-dependent binding was observed and a 1:1 Langmuir model could be applied to obtain the respective KD value. The determined KD^(p97-ND1) values mostly agreed well with those previously determined for the respective fragments with the isolated N-domain. […] TROLL1 and VIK40 were therefore not considered further.
(§1) Protein constructs for BLI measurements were enzymatically biotinylated using BirA[28]. Biotinylated p97 was loaded on Super Streptavidin Biosensors (SSA) obtained from Sartorius as follows. SSA-sensors were equilibrated in PBS-buffer, loaded with a protein solution containing 50 µg/mL (p97-ND1) or 100 µg/mL (p97-N) protein, blocked with biocytin and washed in PBS buffer. Reference SSA-sensors were set up by blocking them with a 10 µg/mL biocytin solution for 5 min[27]. The SSA-sensors were loaded to a shift of up to 7 nm with p97-ND1 and 10 nm with p97-N, respectively.
(§2) Screening plates were prepared by adding 10 µL of a 10 mM DMSO stock solution of library compound to 190 µL of PBS buffer (containing 0.05% TWEEN 20, 1 mM DTT and 5 mM MgCl2 [only for p97-ND1]) in 96 well plates (Greiner). The final DMSO concentration was 5% (v/v). All BLI measurements were performed on an Octet RED96e (Sartorius) device.
(§3) Selected fragments of the initial screenings were confirmed by dose-response-titrations using six concentrations ranging from 1000 to 31.3 µM in a 1:1 dilution series. Every concentration was measured twice. The assay settings were as follows: baseline measurement 15 s; association time 120 s and dissociation time 180 s. The double referenced data were further analyzed in Origin Pro to estimate the affinity by fitting the signals of the steady states to a 1:1 Langmuir model. For the fitting all measured data points (n = 2) were considered.

[3] = target: T2, N-domain of p97 (Homo sapiens, UniProt P55072); test: STD-NMR build-up measurements with the isolated N-domain; format: binding
T2 construct: additional STD measurements with the isolated N-domain were carried out; made in house
Experimental: To obtain additional information about the putative binding mode of the selected fragments, full STD-NMR build-up curves were measured for the fragments TROLL2, TROLL7, TROLL8 and TROLL12 and the initial rates of STD build-up (STD0) were calculated. […] As expected, the saturation effects were higher for the ND1 construct compared to the isolated N-domain due to the stronger nuclear Overhauser effect (NOE) of the much larger protein. Because of water suppression, not all hydrogens of the selected fragments were experimentally accessible. For the remaining hydrogen atoms, different STD0 values were determined, indicating a defined orientation of the fragments upon binding to p97 (Supplementary Fig. 7). For TROLL2, TROLL7 and TROLL12 a clear dominance in the saturation of the protons at the hydrophobic aromatic parts of the molecules was visible.
For binding epitope mapping of selected fragments, the initial growth rates approach was used as described. For determination of the initial rate of STD build up (STD0) the STD intensities for seven saturation times (0.5, 0.75, 1.0, 1.5, 2.0, 3.0, 5.0 s) were measured for the ND1 as well as for the isolated N-domain and fitted by an exponential equation using R. The recycle delay (d1) was set to 5 s. For each fragment also a negative control without protein was measured with a saturation time of 5.0 s. Theoretical STD0 values on the basis of the obtained X-ray crystal structure as well as for representative mixed-solvent MD poses were calculated using the Complete Relaxation and Conformational Exchange Matrix Analysis of Saturation Transfer (CORCEMA-ST) software version 3.8[72] and ShiftX version 1.1[73]. Predicted and experimental STD-data were evaluated using the NOE R-factor (see Supplementary Methods in the Supporting Information).

[4] = target: T3, p97-N (Homo sapiens, UniProt P55072); test: BLI dose-response binding to the isolated N-domain of p97; details: for Kd: BLI steady state, 1:1 Langmuir model, errors from the fitting model; for LLEAT: based on KD for p97-N, heavy atom count and clogP; for ScoreBLI: based on sensorgrams from measurements with p97-N, about 1.0 or above = 1:1 binder; for LE: ligand efficiency based on KD for p97-N
T3 construct: Constructs of p97-N (aa 21-199, N-terminal 3 C protease-cleavable His6-tag); His6 (3C protease-cleavable) (N); made in house
Experimental: The selected 42 fragments of the screen with the N-domain were tested in a dose-dependent manner using concentrations from 1000.0 µM to 31.3 µM in 1:1 dilution steps. […] The sensorgrams of these fragments were fitted with a 1:1 Langmuir model to estimate their affinities and analyzed with respect to the following parameters: (i) The presence of a stationary phase; (ii) curve shapes according to either a homogeneous (1:1) or a heterogeneous (2:1) binding model, and (iii) justification of a 1:1 binding model via the obtained empirical constants kobs of the association phase. Based on these analyses, a ScoreBLI was calculated (for details see Supplementary Methods in the Supporting Information). The calculated ScoreBLI should be close to or above 1.0 for ligands that can be described with a 1:1 model, whereas ligands showing unspecific binding yield values << 1.0. Based on the ScoreBLI, we divided the fragments into a low-scoring (<0.70) and a high-scoring (≥0.70) group.
as §1, §2, §3
Definition of the quality score “ScoreBLI”
For selecting fragments for further analysis, the ScoreBLI was def ined as : […]
SSSSSSSSSSBBBBBB = rrmmmmmmmm 1:1rrmmmmmmmm 2:12 SSkkkkkkkk rmean 1:12 is the mean of the r2 coefficients of t he r egr es s ions of all association phases measured f or a given f ragment. The data were f itted with a 1:1 binding model:
RRPP = RRPPee ?1 − SS −(kkkkkkkk PP ) ? with RRPP the shift at the time t, k obs the empirical rate constant and RRPPee the shift at equilibrium.
In analogy, the rmean 2:12 was def ined by f itting with a 2:1 binding model:
RRPP = RRPPee 1 ?1 − SS −(kkkkkkkk1 PP) ? + RRPPee 2 ?1 − SS −(kkkkkkkk2 PP) ? A ligand f ollowing a 1:1 model would result in a good rmean2 f or both functions, whereas f or a lig and which is better described with a 2:1 model the rmean2 f or a 1:1 model would decrease, resulting in an overall decreased value.
In case of a 1:1 model the empirical rate constant k obs is proportional to the concentration of […]
kkkkkkkk = kkPP [LL ] + kkdd with ka t he association rate constant and kd t he dissociation rate constant. Theref ore, all observed empirical rate constants of a ligand were subjected to a linear regression model, which yielded the value r kobs2 .
A Langmuir model was used to es t im at e the affinities of the fragments. The use of this model requires that a chemical equilibrium is reached. To analyze whether this condition was met, the responses of the last 10 seconds of each association phase were f itted with a linear model. […]

[5] = target: T1, p97-ND1; test: STD-NMR with p97-ND1 in the presence of 500 µM ADP; format: binding; parameters: key to mean STD-effect (ND1) / maximum STD-effect (ND1): STD effect = Idiff/Ioff × 100 (%); details: for maximum STD-effect (ND1) / mean STD-effect (ND1): Supplementary Table 3; for STD (maximum STD signal measured with p97-ND1): aromatic resonances, 428 µM fragment, 30 µM protein, 500 µM ADP
Experimental: The NMR measurements were carried out with the biologically more relevant p97-ND1 construct in the presence of 500 µM ADP to block the nucleotide binding site. The STD effect was calculated by dividing the intensity of the difference spectrum by the intensity of the off-spectrum (Idiff/ Ioff × 100) for each signal. For further analysis only resonances in the aromatic region of the ^1H NMR spectrum of the individual ligand were considered. A mean STD effect of each fragment interacting with p97-ND1 was calculated using the sum of the individual STD effects divided by the number of signals considered. Furthermore, the maximum STD effect of each compound was determined. […] Similar results were obtained in the previously reported fragment screen with p97[26]. An overview of the STD effects is shown in Supplementary Fig. 4.
All Saturation-Transfer-Difference (STD)[32] measurements were performed on a Bruker Avance III 400 MHz spectrometer (Karlsruhe, Germany) operating at 400.13 MHz with a PABBI 1H/D-BB Z-GRD inverse probe at 300 K adjusted with a BSVT (Bruker) temperature control unit. Temperature calibration was carried out with 99.8% CD3OD (282–330 K). The stddiffesgp.3 pulse program from the Bruker pulseprogram library was used for data acquisition. The suppression of the HDO signal (4.703 ppm) was achieved by the excitation sculpting method. The saturation frequency for the on- and off-resonances was set to −400 Hz and −16,000 Hz, respectively. The saturation time was 3 s with a relaxation delay D1 of 4 s.
The protein stock solutions were transferred to a deuterated buffer containing 35 mM potassium phosphate and 25 mM NaCl in D2O at a pD of 7.5 using 0.5 mL Centricon devices (Merck Millipore) with a MWCO of 30 kDa by washing and centrifuging several times at 10,000 × g and 4 °C. Buffer-exchanged protein was adjusted to a concentration of 30 µM with NMR buffer. The respective fragment concentration was 428 µM with a final DMSO-d6 fraction of 5% (v/v). All measurements were performed in the presence of 500 µM ADP (in case of the ND1 domain) and 5 mM MgCl2. All data were analyzed using TopSpin 4.0.8 (Bruker Corporation, Billerica, MA, USA).

[6] = BLI steady state, 1:1 Langmuir model, errors from the fitting model, read-out: KD p97-ND1

T1 sequence (P55072 2-481): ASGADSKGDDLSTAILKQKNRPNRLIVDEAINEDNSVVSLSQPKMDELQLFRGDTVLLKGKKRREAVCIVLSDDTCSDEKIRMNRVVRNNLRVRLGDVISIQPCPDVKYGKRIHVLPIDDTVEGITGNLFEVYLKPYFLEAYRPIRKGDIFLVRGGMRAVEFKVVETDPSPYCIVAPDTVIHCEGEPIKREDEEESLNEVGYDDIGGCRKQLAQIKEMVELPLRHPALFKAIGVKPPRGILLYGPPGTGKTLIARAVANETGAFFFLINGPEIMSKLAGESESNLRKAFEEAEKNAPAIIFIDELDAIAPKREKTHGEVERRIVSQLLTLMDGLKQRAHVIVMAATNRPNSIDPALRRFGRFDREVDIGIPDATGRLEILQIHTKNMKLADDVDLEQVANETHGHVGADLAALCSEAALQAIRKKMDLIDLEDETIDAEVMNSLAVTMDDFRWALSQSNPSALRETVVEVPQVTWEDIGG
T3 sequence (P55072 21-199): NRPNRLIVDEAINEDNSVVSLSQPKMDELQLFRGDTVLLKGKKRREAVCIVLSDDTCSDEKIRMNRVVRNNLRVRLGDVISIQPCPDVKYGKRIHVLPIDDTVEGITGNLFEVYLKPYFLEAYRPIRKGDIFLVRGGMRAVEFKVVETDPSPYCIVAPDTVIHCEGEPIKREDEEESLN
T2 sequence (P55072 21-199 limits assumed): as the sequence (P55072 21-199) above

Row | Structure (SMILES) | Kd ([1]; ND1 fragment spanning amino acids 1-458) | Kd ([1]; ND1 fragment spanning amino acids 1-480) | Kd ([2]; Langmuir model, steady state measurements of a dilution series, read-out: KD of ADP to p97-ND1 (steady state)) | Kd ([2]; global exponential regression, 1:1 binding model, read-out: affinity of ADP to p97-ND1 (kinetic analysis)) | ScoreBLI ([2]; score evaluated with binding data for ADP) | binding to the N-domain by STD-NMR [3] | Kd [4] | LLEAT [4] | ScoreBLI [4] | LE [4] | Kd [2, 6] | maximum STD-effect (ND1) [5] | mean STD-effect (ND1) [5] | STD (maximum STD signal measured with p97-ND1) [5]
1 | Nc1ncnc2c1ncn2[C@@H]1O[C@H](COP(=O)(O)OP(=O)(O)O)[C@@H](O)[C@H]1O [ADP, adenosine diphosphate, reference compound] | 0.2 µM | 0.098 µM | 0.2 ± 0.014 µM | 0.239 ± 0.009 µM | 1.02 |  |  |  |  |  |  |  |  | 
2 | NCC(O)c1ccc(Br)cc1 (stereo not shown) [TROLL2] |  |  |  |  |  | confirmed the binding | 56 ± 46 µM | 0.47 | 0.83 | 0.52 | 321 ± 67 µM | 37.7 | 36.0 | 37.7%
3 | O=C(O)Cc1cc2ccccc2[nH]1 [TROLL6] |  |  |  |  |  |  | 160 ± 22 µM | 0.30 | 0.75 | 0.39 | 243 ± 16 µM | 72.5 | 66.5 | 72.5%
4 | NCC(O)c1ccc(Cl)cc1 (stereo not shown) [TROLL7] |  |  |  |  |  | confirmed the binding |  | 0.42 | 0.91 | 0.45 |  | 37.3 | 34.5 | 37.3%
5 | Cc1ccc(-c2cc(N)n[nH]2)o1 [TROLL8] |  |  |  |  |  | confirmed the binding | 245 ± 43 µM | 0.40 | 0.91 | 0.41 | 598 ± 214 µM | 41.0 | 33.1 | 41.0%
6 | Cc1oc(CN)nc1-c1ccccc1 [TROLL12] |  |  |  |  |  | confirmed the binding | 354 ± 17 µM | 0.34 | 0.84 | 0.33 |  | 47.9 | 44.5 | 47.9%
7 | Cc1ccc(-c2csc3nc(CO)cn23)cc1 [TROLL14] |  |  |  |  |  |  | 409 ± 61 µM | 0.16 | 0.93 | 0.27 | 290 ± 33 µM | 67.4 | 55.4 | 67.4%
8 | Nc1[nH]ncc1-c1ccc(Cl)cc1 [TROLL18] |  |  |  |  |  |  | 625 ± 89 µM | 0.27 | 0.89 | 0.33 | 445 ± 223 µM | 57.4 | 54.3 | 57.4%
9 | Nc1nc2c(s1)CN(Cc1ccccc1)CC2 [VIK20] |  |  |  |  |  |  | 147 ± 32 µM | 0.27 | 0.94 | 0.30 | 192 ± 92 µM | 18.3 | 18.3 | 18.3%
